Biological target: Cyclin-A2/Cyclin-dependent kinase 2 (Homo sapiens, UniProt P24941)
Experiment: CDK Inhibition Assay
Details: pH 7.5; 22 °C
Experimental: In vitro kinase assay using purified CDK2/Cyclin A was incubated at room temperature with substrate, and test compounds in the presence of 100 uM ATP/ [gamma-33P] ATP. Assays were performed in 96-well polypropylene plates. 33P incorporation into substrate was measured using a scintillation counter.

IC50: 760 nM
SMILES: NS(=O)(=O)c1ccc(-c2ccc(/C=c3\sc4nc5ccccc5n4c3=O)o2)cc1 [4-(5-{[(4Z)-3-oxo-5-thia-2,7-diazatricyclo[6.4.0.0^{2,6}]dodeca-1(12),6,8,10-tetraen-4-ylidene]methyl}furan-2-yl)benzene-1-sulfonamide]
